Values joined by “and” are separate entries in the source; they are usually repeats but may differ in a detail not shown here. Identical values can stand only once.
Experiments:
[1] = test system: MCF-7 human breast tumor cells; experiment: Clonigenic assay for MCF-7 human breast tumor cells; format: cell-based; conditions: for Colonies ± S.D.: 24 hours treatment, grown 22 days
Procedure: MCF-7 cells (10^7) are added to 100 mm tissue culture dishes, allowed to adhere for 24 hours and then treated with either MDL 101,906 or ICI 164,384 for 24 hours. The cells are removed from the dishes with trypsin/EDTA, and washed twice by centrifugation. The cells were counted and 500 cells from each treatment group are added to triplicate wells of 6-well culture dishes. The cells are grown for 22 days. Colonies 1 mm diameter or greater are counted.

mouse estrogen receptor = conditions: Fawell, S. E., et al. (1990); cited from earlier work
estrogen receptors = biological target: T1, estrogen receptors (Homo sapiens, UniProt P03372); experiment: Quantification of estrogen receptors in nuclear and whole cell extracts (ER-EIA monoclonal kit), Table 1; format: cell-based, human (MCF-7 human breast cancer cells); conditions: estrogen receptors in nuclear extracts
T1 construct: estrogen receptor extracted from MCF-7 human breast tumor cells; endogenous in cells; host or cells: MCF-7 human breast cancer cells (nuclear extract, cytosol or whole cell extract)
T1 sequence (P03372 1-595): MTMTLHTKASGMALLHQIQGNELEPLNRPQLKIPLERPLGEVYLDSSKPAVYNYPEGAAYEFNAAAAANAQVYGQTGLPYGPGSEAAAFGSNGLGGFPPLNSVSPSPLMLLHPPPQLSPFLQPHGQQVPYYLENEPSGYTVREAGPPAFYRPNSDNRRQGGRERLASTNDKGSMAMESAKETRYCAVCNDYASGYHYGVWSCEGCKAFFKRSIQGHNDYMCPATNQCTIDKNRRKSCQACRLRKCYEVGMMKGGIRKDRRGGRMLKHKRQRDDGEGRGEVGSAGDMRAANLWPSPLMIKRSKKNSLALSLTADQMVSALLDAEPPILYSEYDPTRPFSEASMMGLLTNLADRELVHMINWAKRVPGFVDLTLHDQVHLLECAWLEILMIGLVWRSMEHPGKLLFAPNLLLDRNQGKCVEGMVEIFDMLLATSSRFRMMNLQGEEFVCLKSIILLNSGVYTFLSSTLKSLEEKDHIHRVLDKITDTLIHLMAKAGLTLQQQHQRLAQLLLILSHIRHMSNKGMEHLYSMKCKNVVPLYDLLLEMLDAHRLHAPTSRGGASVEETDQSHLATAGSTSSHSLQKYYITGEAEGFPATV
Procedure: (§1) Monolayers of MCF-7 human breast cancer cells are rinsed once with HBSS and scraped off culture dishes into 15 ml conical tubes with 5 ml HBSS. The cells are sedimented by centrifugation at 250×g for five minutes, suspended in 1 ml HBSS and sedimented by centrifugation at 2000 rpm in a tabletop centrifuge for five minutes in a 1.5 ml microfuge tube. Two PCV of a solution of a lysis buffer (25 mM HEPES, pH 7.8, 50 mM KCl, 0.5% Nonidet P 40, 2 mM dithiothreitol, 0.2 mM phenylmethylsulfonyl fluoride, 0.05 mg/ml leupeptin, 0.05 mg/ml aprotinin, 0.0025 mg/ml pepstatin, 0.005 mg/ml antipain) are added and cells are kept on ice for 15 minutes. Lysed cells are centrifuged for 3 minutes at 10,000×g, supernatant decanted, and kept as the cytosol fraction. Pellets are suspended in two PCV of extraction buffer (25 mM HEPES, pH 7.8, 500 mM KCl, 10% glycerol, 2 mM dithiothreitol and the above protease inhibitors), mixed for 20 minutes by inversion at 4 degrees C. and centrifuged at 10,000×g for 20 minutes. The supernatant is decanted and saved as nuclear extract. Both the nuclear extract and the cytosol are dialyzed for two hours against dialysis buffer (25 mM HEPES, pH 7.8, 50 mM KCl, 10% glycerol, 2 mM dithiothreitol and the above protease inhibitors). Nuclear and cytosol fractions are stored frozen at -80 degrees C. until used for mobility shift assays or determination of estrogen receptor content.
Whole cell extracts of tumor cells are prepared by the method of Reese and Katzenellenbogen, Nuc. Acids Res., 19: 6595-6602 (1991), with some modifications. Cell monolayers are rinsed once with HBSS, then scraped into HBSS and sedimented by centrifugation (5 min., 250×g). After resuspending in 1 mL HBSS, the cells are again sedimented at 250×g for 5 min at 4° C. The cell pellet is resuspended in lysis/extract buffer containing 20 mM Tris, pH 7.5, 10% glycerol (v/v), 0.5M sodium chloride and 0.5% NP-40 (v/v) and incubated on ice for 25 minutes, then the supernatants are dialyzed against 25 mM HEPES, pH 7.8, 10% glycerol (v/v), 0.5 mM dithiothreitol and 50 mM potassium chloride for 2 hours at 4° C. Both the lysis/extraction and the dialysis buffers contain protease inhibitors which included 0.5 mM phenylmethylsulfonylfluoride, 0.05 mg/mL leupeptin, 0.05 mg/mL aprotinin, 0.00-25 mg/mL pepstatin, and 0.005 mg/mL antipain. Dialyzed whole cell extracts are stored in aliquots at -80° C. until used.
The protein concentration for nucleus and cytosol fractions are determined with a BIO-RAD kit, according to the manufacturer's instructions.
Estrogen receptor levels in nuclear and whole cell extracts of tumor cells were quanitated using the ER-EIA monoclonal kit manufactured by Abbott Laboratories (Diagnostic Division) according to the kit instructions.
receptors in nuclear extracts.
.dagger.WCE refers to IC50 value for estrogen receptors in whole cel
A slash dividing two numbers indicates the results of two separate

MCF-7 estrogen receptor = biological target: T2, MCF-7 estrogen receptor (Homo sapiens, UniProt P03372); experiment: Competitive binding assay, Relative Binding Affinities on binding of estradiol to MCF-7 estrogen receptor
T2 construct: estrogen receptor extracted from MCF-7 human breast tumor cells; endogenous in cells; host or cells: MCF-7 human breast cancer cells (nuclear extract, cytosol or whole cell extract)
T2 sequence (P03372 1-595): T1 sequence (P03372 1-595)
Procedure: Briefly, RBAs are determined from competitive binding assays with several concentrations of estradiol (E2) with and without test compound. After 16-18 hours of incubation at 4 degrees C., unbound [^3 H] E2 is separated from ER-bound [^3 H] E2. The IC50 is determined and the RBA is calculated as: […]

[2] = biological target: T3, estrogen receptor binding to an estrogen response element (Homo sapiens, UniProt P03372); experiment: Inhibition of estrogen receptor binding to an estrogen response element in DNA mobility shift assays; format: biochemical, human (nuclear extract of MCF-7 human breast cancer cells)
T3 construct: estrogen receptor extracted from MCF-7 human breast tumor cells; endogenous in cells; host or cells: MCF-7 human breast cancer cells (nuclear extract, cytosol or whole cell extract)
T3 sequence (P03372 1-595): T1 sequence (P03372 1-595)
Procedure: as §1
Briefly, to each reaction tube was added 0.01 mg nuclear extract, 2 μg poly dIdC, 50 mM NaCl, 1 mM dithiothreitol and 10 mM Tris, pH 7.5 in a total volume of 0.01 ml and the mixture was kept at room temperature for 10 minutes. A ^32 P-labelled estrogen response element [ERE]

estrogen receptor mRNA = experiment: Reduction of estrogen receptor mRNA levels in treated MCF-7 human breast tumor cells; format: cell-based;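 as to Estrogen Receptor mRNA band intensity: Phosphoimager intensity of radioactive mRNA bands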
Procedure: (§2) After treatment with 30 μM drug for 24 hr, total RNA is isolated according to the guanidinium isothiocyanate method using an RNA preparation kit from 5 Prime-3 Prime, Inc., following the manufacturer's instructions. The RNA is separated by formaldehyde gel electrophoresis and transferred to a nylon membrane.

GAPDH mRNA = GAPDH mRNA levels in treated MCF-7 human breast tumor cells (positive control probe); format: cell-based; conditions: 30 μM, 24 hr;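 also: Phosphoimager intensity of radioactive mRNA bands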
Procedure: as §2

[3] = test system: hormone-dependent breast cancer; conditions: cited from earlier work
[4] = read-out: integrated volume of shifted ERE oligo as percentage of control, given as % inhibition

CCCCN(C)C(=O)CCCCCCCCCC[C@@H]1Cc2cc(O)ccc2[C@H]2CC[C@]3(C)[C@@H](O)CC[C@H]3[C@H]12 [ICI 164,384, 11-(3-17β-dihydroxyoestra-1,3,-5(10)-trien-7α-yl)-N-n-butyl-N-methylundecanamide, reference compound]
Colonies ± S.D. ([1]; 0.1 μM): 48 ± 6 | Colonies ± S.D. ([1]; 1.0 μM): 40 ± 2 | activity at 0.1 µM ([1]; Homo sapiens, MCF7, 528 h, 0.1 μM, read-out: Colonies, % Control): 145% | activity at 1 µM ([1]; Homo sapiens, MCF7, 528 h, 1.0 μM, read-out: Colonies, % Control): 121% | inhibition of DNA binding of the mouse estrogen receptor (mouse estrogen receptor): inhibit DNA binding of the mouse estrogen receptor by interfering with receptor dimerization

CCCCN(C)C(=O)CCCCCCCNC(=O)Cc1c(-c2ccc(O)cc2)n(Cc2ccccc2)c2ccc(O)cc12 [MDL 103,324, 8-[[5-Hydroxy-1-benzyl-2-[(4-hydroxy)-phenyl]-1H-indol-3-yl]-acetylamino]-octanoic acid methyl-butyl-amide]
IC50 (estrogen receptors): 18 µM | inhibition of estradiol binding to MCF-7 ER (MCF-7 estrogen receptor; doses of 100 or 200 nM): did not significantly inhibit | inhibition of estradiol binding to MCF-7 ER (MCF-7 estrogen receptor; typically, at doses of 100 or 200 nM): less than 10% | IC50 [2]: 8.5 µM and 18 µM | inhibition at 2 µM [2, 4]: 60% | inhibition at 5 µM [2, 4]: 68% | inhibition at 10 µM [2, 4]: 58% | inhibition at 20 µM [2, 4]: 46% | inhibition at 30 µM [2, 4]: 50% | ER/GAPDH mean (estrogen receptor mRNA; 30 μM, 24 hr, mean of replicates 1 and 2): 0.74 | ER/GAPDH (estrogen receptor mRNA; 30 μM, 24 hr, replicate 1): 0.61 | Estrogen Receptor mRNA band intensity (estrogen receptor mRNA; 30 μM, 24 hr, replicate 1): 5,128 | ER/GAPDH (estrogen receptor mRNA; 30 μM, 24 hr, replicate 2): 0.87 | Estrogen Receptor mRNA band intensity (estrogen receptor mRNA; 30 μM, 24 hr, replicate 2): 7,077 | activity at 30 µM (estrogen receptor mRNA; Homo sapiens, MCF7, 24 h, read-out: ER/GAPDH % Control): 20% | GAPDH mRNA band intensity (GAPDH mRNA; replicate 1): 8,300 | GAPDH mRNA band intensity (GAPDH mRNA; replicate 2): 8,118

CC/C(=C(\c1ccccc1)c1ccc(OCCN(C)C)cc1)c1ccccc1 [tamoxifen]
patients who do not respond to tamoxifen treatment despite presence of ERs in the malignant tissue ([3]; Maass, H., et al., Cancer, 46:2783 (1980)): About 40% | toxicological problems associated with tamoxifen treatment ([3]; in vivo): tumor flares, vaginal cornification and hypercalciemia

From patent publication US5877202A, “Indole derivatives useful to treat estrogen-related neoplasms and disorders” (priority 1996, dated 1999)
